From ChEMBL document CHEMBL2346572, “Discovery of AZD3514, a small-molecule androgen receptor downregulator for treatment of advanced prostate cancer” (Bioorg Med Chem Lett, 2013)
In brackets after ≈: the same amount, converted by molar mass. Activity calls are given as the source filed them. The calls are words filed in the database; no cut-off is given here.

How the values were obtained:
[1] = Fraction unbound in Han Wistar rat plasma by equilibrium dialysis method; type: ADME, cell-free
[2] = Fraction unbound in human plasma by equilibrium dialysis method; type: ADME, cell-free
[3] = Lipophilicity, log D of the compound at pH 7.4; conditions: buffer
[4] = molecular target: Voltage-gated inwardly rectifying potassium channel KCNH2 (Homo sapiens, UniProt Q12809); assay: Inhibition of human ERG by IonWorks assay
physchem = conditions: phosphate buffer
[5] = Intrinsic clearance in human hepatocytes measured per 10^6 cells
Androgen receptor [6] = molecular target: T1, Androgen receptor (Homo sapiens, UniProt P10275); assay: Inhibition of androgen receptor-mediated cellular downregulation in human LNCAP cells assessed as decrease in nuclear receptor level after 20 to 22 hrs by laser-scanning fluorescence microplate cytometeric analysis; type: cell-based
T1 sequence (P10275 whole entry): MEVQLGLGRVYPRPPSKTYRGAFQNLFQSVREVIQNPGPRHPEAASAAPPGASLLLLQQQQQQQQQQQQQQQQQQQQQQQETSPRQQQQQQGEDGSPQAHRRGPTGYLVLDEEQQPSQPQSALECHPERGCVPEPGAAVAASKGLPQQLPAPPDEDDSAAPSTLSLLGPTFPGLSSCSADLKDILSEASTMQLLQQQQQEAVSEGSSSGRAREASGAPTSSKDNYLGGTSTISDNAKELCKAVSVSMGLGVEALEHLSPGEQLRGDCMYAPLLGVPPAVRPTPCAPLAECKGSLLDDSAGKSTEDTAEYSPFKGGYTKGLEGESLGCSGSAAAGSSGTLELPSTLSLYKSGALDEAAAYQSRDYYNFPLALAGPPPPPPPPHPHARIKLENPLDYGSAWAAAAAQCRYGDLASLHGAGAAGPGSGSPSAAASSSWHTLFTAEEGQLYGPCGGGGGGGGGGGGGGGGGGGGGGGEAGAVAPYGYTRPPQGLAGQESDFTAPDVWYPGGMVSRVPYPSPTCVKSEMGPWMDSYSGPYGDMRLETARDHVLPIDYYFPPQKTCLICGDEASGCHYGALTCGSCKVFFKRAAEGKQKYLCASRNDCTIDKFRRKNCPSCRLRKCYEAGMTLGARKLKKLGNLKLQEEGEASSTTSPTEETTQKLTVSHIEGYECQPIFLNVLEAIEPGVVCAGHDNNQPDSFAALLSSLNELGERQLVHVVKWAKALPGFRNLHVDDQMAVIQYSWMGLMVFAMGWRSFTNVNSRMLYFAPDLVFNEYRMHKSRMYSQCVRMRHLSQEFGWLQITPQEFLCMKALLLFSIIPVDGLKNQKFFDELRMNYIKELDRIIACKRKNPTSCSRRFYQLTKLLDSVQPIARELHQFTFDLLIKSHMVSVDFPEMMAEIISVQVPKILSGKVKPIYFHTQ

Rattus norvegicus [7] = assay: Antiandrogenic activity in immature castrated Hershberger rat model assessed as inhibition of testosterone propionate-induced seminal vesicle growth at 50 to 100 mg/kg, po bid for 7 days; type: functional, organism-based
[8] = Oral bioavailability in beagle dog at 10 umol/kg; type: ADME, organism-based, Canis lupus familiaris; conditions: in vivo
[9] = Oral bioavailability in Han Wistar rat at 50 umol/kg; type: ADME, organism-based; conditions: in vivo
[10] = Clearance in beagle dog at 2 umol/kg, iv and 10 umol/kg, po; type: ADME, organism-based, Canis lupus familiaris; conditions: in vivo
[11] = Clearance in Han Wistar rat at 20 umol/kg, iv and 50 umol/kg, po; type: ADME, organism-based; conditions: in vivo
[12] = Volume of distribution at steady state in beagle dog at 2 umol/kg, iv and 10 umol/kg, po; type: ADME, organism-based, Canis lupus familiaris; conditions: in vivo, read-out: Vdss
[13] = Volume of distribution at steady state in Han Wistar rat at 20 umol/kg, iv and 50 umol/kg, po; type: ADME, organism-based; conditions: in vivo, read-out: Vdss
[14] = Oral bioavailability in Han Wistar rat at 10 umol/kg; type: ADME, organism-based; conditions: in vivo
[15] = Clearance in Han Wistar rat at 3 umol/kg, iv and 10 umol/kg, po; type: ADME, organism-based; conditions: in vivo
[16] = Volume of distribution at steady state in Han Wistar rat at 3 umol/kg, iv and 10 umol/kg, po; type: ADME, organism-based; conditions: in vivo, read-out: Vdss
[17] = Oral bioavailability in Han Wistar rat at 5 umol/kg; type: ADME, organism-based; conditions: in vivo
[18] = Clearance in Han Wistar rat at 4 umol/kg, iv and 5 umol/kg, po; type: ADME, organism-based; conditions: in vivo
[19] = Volume of distribution at steady state in Han Wistar rat at 4 umol/kg, iv and 5 umol/kg, po; type: ADME, organism-based; conditions: in vivo, read-out: Vdss
Androgen receptor [20] = molecular target: T1, Androgen receptor; assay: Displacement of [3H]R1881 from full length androgen receptor in human LNCAP cells; type: cell-based
Androgen receptor [21] = molecular target: T2, Androgen receptor (Rattus norvegicus, UniProt P15207); assay: Binding affinity to rat androgen receptor ligand binding domain by fluorescence polarization assay
T2 sequence (P15207 whole entry): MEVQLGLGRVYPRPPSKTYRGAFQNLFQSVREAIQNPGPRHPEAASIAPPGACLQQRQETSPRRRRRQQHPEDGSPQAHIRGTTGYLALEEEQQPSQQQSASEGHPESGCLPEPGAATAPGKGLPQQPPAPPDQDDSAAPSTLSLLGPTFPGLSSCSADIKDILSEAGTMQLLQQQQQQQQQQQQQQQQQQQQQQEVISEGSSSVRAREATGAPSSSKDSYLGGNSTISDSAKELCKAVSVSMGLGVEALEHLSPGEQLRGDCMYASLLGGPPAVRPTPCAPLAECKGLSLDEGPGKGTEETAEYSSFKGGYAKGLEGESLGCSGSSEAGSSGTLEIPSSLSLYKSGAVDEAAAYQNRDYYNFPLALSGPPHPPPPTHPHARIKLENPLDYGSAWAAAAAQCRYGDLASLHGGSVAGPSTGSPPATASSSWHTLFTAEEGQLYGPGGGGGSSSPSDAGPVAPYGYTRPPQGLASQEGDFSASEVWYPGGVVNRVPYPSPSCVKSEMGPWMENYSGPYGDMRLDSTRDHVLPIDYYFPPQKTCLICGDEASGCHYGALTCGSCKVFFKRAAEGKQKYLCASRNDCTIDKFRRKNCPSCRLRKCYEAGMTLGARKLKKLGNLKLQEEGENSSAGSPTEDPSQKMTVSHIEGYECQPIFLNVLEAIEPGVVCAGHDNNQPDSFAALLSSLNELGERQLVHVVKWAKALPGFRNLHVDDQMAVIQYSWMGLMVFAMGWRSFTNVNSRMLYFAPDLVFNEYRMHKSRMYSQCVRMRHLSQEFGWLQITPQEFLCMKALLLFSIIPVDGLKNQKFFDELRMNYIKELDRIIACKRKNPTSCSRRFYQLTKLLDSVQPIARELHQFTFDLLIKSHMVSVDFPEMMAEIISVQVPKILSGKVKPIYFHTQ

Rattus norvegicus [22] = assay: Antiandrogenic activity in immature castrated Hershberger rat model assessed as inhibition of testosterone propionate-induced seminal vesicle growth at 2 mg/kg, po bid for 7 days; type: functional, organism-based; parameters: dose 2 mg/kg

Sequence of Voltage-gated inwardly rectifying potassium channel KCNH2 (Q12809 whole entry): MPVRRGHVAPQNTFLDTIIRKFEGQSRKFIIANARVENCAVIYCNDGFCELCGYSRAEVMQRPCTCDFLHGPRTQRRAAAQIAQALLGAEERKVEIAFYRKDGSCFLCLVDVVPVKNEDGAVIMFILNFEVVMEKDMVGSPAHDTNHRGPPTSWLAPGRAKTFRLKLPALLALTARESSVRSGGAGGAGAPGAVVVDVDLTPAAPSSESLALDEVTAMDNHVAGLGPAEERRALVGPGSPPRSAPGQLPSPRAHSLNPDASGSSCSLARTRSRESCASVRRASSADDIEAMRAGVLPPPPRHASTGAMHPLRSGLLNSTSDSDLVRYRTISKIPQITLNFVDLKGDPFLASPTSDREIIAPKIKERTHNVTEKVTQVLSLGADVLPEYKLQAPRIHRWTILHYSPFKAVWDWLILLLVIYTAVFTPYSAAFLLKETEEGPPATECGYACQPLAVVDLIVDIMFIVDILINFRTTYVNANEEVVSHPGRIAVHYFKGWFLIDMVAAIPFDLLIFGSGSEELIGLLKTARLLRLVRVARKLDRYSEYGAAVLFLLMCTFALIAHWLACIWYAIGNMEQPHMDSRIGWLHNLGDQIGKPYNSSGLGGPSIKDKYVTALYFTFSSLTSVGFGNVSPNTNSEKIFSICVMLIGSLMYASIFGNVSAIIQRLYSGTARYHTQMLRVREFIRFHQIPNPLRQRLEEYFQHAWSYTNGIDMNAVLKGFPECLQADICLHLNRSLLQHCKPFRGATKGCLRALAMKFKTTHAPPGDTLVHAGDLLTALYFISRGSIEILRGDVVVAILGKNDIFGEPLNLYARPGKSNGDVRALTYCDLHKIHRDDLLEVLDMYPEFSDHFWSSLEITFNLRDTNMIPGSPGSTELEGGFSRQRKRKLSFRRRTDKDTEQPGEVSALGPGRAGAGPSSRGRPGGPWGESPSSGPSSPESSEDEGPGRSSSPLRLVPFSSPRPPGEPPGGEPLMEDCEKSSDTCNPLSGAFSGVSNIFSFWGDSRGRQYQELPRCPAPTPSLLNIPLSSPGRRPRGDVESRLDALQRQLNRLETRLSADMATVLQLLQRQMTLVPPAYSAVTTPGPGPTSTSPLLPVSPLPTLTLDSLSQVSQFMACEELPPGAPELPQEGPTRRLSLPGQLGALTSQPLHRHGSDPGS

Structure (SMILES)	fraction unbound [1]	fraction unbound [2]	logD [3]	IC50 [4]	solubility thermodynamic at 24 h (physchem)	hepatocyte CLint [5]	IC50 (Androgen receptor [6])	further results
CC(=O)N1CCN(CCOc2ccc(C3(O)CCN(c4ccc5nnc(C(F)(F)F)n5n4)CC3)cc2)CC1	0.064	0.17	2.2	> 100 µM	190 µM (≈ 101 µg/mL)	–	–	–
Fc1ccc(CN2CCN(C3=Nn4c(nnc4C(F)(F)F)CC3)CC2)cc1	0.13	0.12	2.8	29.5 µM	520 µM (≈ 199 µg/mL)	3.7 µL/min/1e6 cells	5890 nM	–
OC1(c2cccnc2)CCN(c2ccc3nnc(C(F)(F)F)n3n2)CC1	0.34	0.26	2.1	95.5 µM	100 µM (≈ 36.4 µg/mL)	< 3 µL/min/1e6 cells	10700 nM	growth inhibition (GI) (Rattus norvegicus [7]): Active; bioavailability [8]: > 75%; bioavailability [9]: > 75%; clearance [10]: 18 mL/min/kg; clearance [11]: 38 mL/min/kg; Vd [12]: 1.3 L/kg; Vd [13]: 5.7 L/kg
Cn1nccc1CCOc1ccc(C2CCN(c3ccc4nnc(C(F)(F)F)n4n3)CC2)cc1	0.0021	0.0016	> 4.3	17.8 µM	< 0.73 µM	12 µL/min/1e6 cells	234 nM	growth inhibition (GI) (Rattus norvegicus [7]): Active; bioavailability [8]: 18%; bioavailability [14]: 43%; clearance [15]: 22 mL/min/kg; clearance [10]: 9.2 mL/min/kg; Vd [16]: 2.3 L/kg; Vd [12]: 2.7 L/kg
CC(=O)N1CCN(CCOc2ccc(C3CCN(C4=Nn5c(nnc5C(F)(F)F)CC4)CC3)cc2)CC1 [AZD3514]	0.094	0.12	2.5	> 100 µM	577 µM (≈ 300 µg/mL)	< 3 µL/min/1e6 cells	1780 nM	growth inhibition (GI) (Rattus norvegicus [7]): Active; bioavailability [17]: 74%; bioavailability [8]: > 75%; clearance [18]: 6.6 mL/min/kg; clearance [10]: 12 mL/min/kg; Vd [19]: 2.1 L/kg; Vd [12]: 3.2 L/kg; Ki (Androgen receptor [20]): 2200 nM; Ki (Androgen receptor [21]): 5 µM
Fc1cccc(CN2CCN(c3ccc4nnc(C(F)(F)F)n4n3)CC2)c1F	0.018	0.017	–	> 100 µM	–	22 µL/min/1e6 cells	2090 nM	–
CC(=O)N1CCN(CCOc2ccc(C3CCN(c4ccc5nnc(C(F)(F)F)n5n4)CC3)cc2)CC1	0.012	0.027	–	11.2 µM	–	12 µL/min/1e6 cells	324 nM	–
N#Cc1ccc(CN2CCN(c3ccc4nnc(C(F)(F)F)n4n3)CC2)cc1	0.092	0.044	2.9	–	8.4 µM (≈ 3.25 µg/mL)	< 3 µL/min/1e6 cells	1510 nM	–
CC(O)(CS(=O)(=O)c1ccc(F)cc1)C(=O)Nc1ccc(C#N)c(C(F)(F)F)c1 (centres undefined)	–	–	–	–	–	–	–	growth inhibition (GI) (Rattus norvegicus [22]): Active
Fc1ccc(CN2CCN(c3ccc4nnc(C(F)(F)F)n4n3)CC2)cc1	0.034	0.02	–	–	–	52 µL/min/1e6 cells	–	–
OC1(c2ccc(F)cc2)CCN(c2ccc3nnc(C(F)(F)F)n3n2)CC1	0.036	0.04	–	–	–	< 3 µL/min/1e6 cells	–	–
